# From ChEMBL document CHEMBL1201862, “PubChem BioAssay data set” (2004)
#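 Growth conditions: 96-well plates. Treatment: test compound, 48 hours, 5 concentrations. Analysis: linear interpolation between bracketing concentrations; unreached endpoints set to highest concentration. GI50 marks 50% less growth.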 The source made the active and inactive calls. No stated cut-off is given here; in the data, active = GI50 up to about 1.1 µM and inactive = higher.
# Key:
# Test in all cases: NCI tumour cell line growth inhibition, 48 h
# HCT-15 = system: HCT-15
# MDA-MB-231 = system: MDA-MB-231
# A549 = system: A549
# SN12C = system: SN12C
# U-251 = system: U-251
# HT-29 = system: HT-29
# SNB-19 = system: SNB-19
# NCI-H23 = system: NCI-H23
# Hs-578T = system: Hs-578T
# UACC-257 = system: UACC-257
# SK-OV-3 = system: SK-OV-3
# HCT-116 = system: HCT-116
# MCF7 = system: MCF7
# CAKI-1 = system: CAKI-1
# TK-10 = system: TK-10
# NCI-H460 = system: NCI-H460
# A498 = system: A498
# SR = system: SR
# SK-MEL-28 = system: SK-MEL-28
# DMS-114 = system: DMS-114
Structure (SMILES),GI50 (HCT-15),GI50 (MDA-MB-231),GI50 (A549),GI50 (SN12C),GI50 (U-251),GI50 (HT-29),GI50 (SNB-19),GI50 (NCI-H23),GI50 (Hs-578T),GI50 (UACC-257),GI50 (SK-OV-3),GI50 (HCT-116),GI50 (MCF7),GI50 (CAKI-1),GI50 (TK-10),GI50 (NCI-H460),GI50 (A498),GI50 (SR),GI50 (SK-MEL-28),GI50 (DMS-114)
O=Cc1cc2c(s1)C(=O)c1sccc1C2=O,0.381 µM,0.792 µM (active),0.813 µM (active),0.35 µM (active),0.314 µM (active),1.88 µM (inactive),0.366 µM (active),0.191 µM (active),0.231 µM (active),0.345 µM (active),2.15 µM (inactive),0.256 µM (active),0.564 µM (active),1.77 µM (inactive),1.92 µM (inactive),1.32 µM (inactive),1.37 µM (inactive),303 nM (active),0.176 µM (active),0.188 µM (active)
Oc1ncc(N(CCCl)CCCl)c(O)n1 [URACIL MUSTARD],50.2 µM,81.3 µM (inactive),23.3 µM (inactive),8.65 µM (inactive),15.2 µM (inactive),69.8 µM (inactive),42.1 µM (inactive),15 µM (inactive),91 µM (inactive),51.1 µM (inactive),47.2 µM (inactive),49 µM (inactive),14.6 µM (inactive),4.33 µM (inactive),110 µM (inactive),3.48 µM (inactive),69.5 µM (inactive),1580 nM (inactive),67.8 µM (inactive),14 µM (inactive)
